Data taken from ChEMBL document CHEMBL1130961, “The development of novel and selective p56lck tyrosine kinase inhibitors” (Bioorg Med Chem Lett, 1998).

Experiments:
[1] = molecular target: Tyrosine-protein kinase Lck (Homo sapiens, UniProt P06239); test: Inhibition of p56 Lck tyrosine kinase
[2] = molecular target: cAMP-dependent protein kinase (PKA) (Homo sapiens, UniProt P22694+P17612+P22612); test: Inhibition of Protein Kinase A (PKA); format: protein assay
[3] = molecular target: Proto-oncogene tyrosine-protein kinase Src (Homo sapiens, UniProt P12931); test: Inhibition of Src tyrosine kinase
Chain of Proto-oncogene tyrosine-protein kinase Src (P12931 2-536 limits assumed): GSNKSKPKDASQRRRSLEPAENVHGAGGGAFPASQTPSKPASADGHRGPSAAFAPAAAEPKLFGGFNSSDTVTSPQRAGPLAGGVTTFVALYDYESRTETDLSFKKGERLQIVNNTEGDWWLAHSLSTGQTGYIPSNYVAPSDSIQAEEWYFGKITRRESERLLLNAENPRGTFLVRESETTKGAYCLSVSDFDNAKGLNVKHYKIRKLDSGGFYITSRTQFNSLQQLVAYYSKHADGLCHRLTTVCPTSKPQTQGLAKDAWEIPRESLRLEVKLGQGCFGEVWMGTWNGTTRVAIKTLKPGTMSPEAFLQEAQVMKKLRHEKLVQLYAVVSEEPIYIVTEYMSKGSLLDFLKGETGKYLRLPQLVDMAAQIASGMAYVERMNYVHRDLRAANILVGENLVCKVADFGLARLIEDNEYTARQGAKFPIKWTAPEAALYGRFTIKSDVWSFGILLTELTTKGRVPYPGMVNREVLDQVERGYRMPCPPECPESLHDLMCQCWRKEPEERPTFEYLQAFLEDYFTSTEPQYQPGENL

Chain of Tyrosine-protein kinase Lck (P06239 whole entry): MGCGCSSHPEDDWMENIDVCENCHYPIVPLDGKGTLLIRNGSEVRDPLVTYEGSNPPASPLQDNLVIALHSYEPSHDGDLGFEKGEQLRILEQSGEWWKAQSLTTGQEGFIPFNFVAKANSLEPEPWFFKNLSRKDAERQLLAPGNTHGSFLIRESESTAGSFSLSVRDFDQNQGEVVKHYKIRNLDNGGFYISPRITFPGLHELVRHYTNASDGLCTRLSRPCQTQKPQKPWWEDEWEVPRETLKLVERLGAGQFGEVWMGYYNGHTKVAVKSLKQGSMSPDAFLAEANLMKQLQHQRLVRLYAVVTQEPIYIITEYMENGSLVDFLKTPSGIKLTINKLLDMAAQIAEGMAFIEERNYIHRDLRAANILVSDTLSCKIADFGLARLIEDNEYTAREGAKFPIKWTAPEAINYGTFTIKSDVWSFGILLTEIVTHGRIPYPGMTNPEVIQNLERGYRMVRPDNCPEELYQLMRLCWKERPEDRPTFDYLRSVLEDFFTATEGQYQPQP

Row | IC50 [1] [nM] | IC50 [2] [nM] | IC50 [3] [nM] | SMILES
1 | 1000 |  |  | O=C1/C(=C\c2cc(Br)c(O)c(Br)c2)C(=O)c2cc(Br)ccc21
2 | 5000 |  |  | O=C1/C(=C/c2ccc(O)c(O)c2)C(=O)c2c1cccc2[N+](=O)[O-]
3 | 5000 |  |  | Nc1ccc2c(c1)C/C(=C\c1cc(Br)c(O)c(Br)c1)C2=O
4 | 600 |  |  | Nc1ccc2c(c1)C(=O)/C(=C/c1ccc(O)c(O)c1)C2=O
5 | 1700 |  |  | COc1cc(C=C2C(=O)c3cc(Cl)c(Cl)cc3C2=O)cc(Br)c1O
6 | 1400 |  |  | O=C1/C(=C/c2cc(Cl)c(O)c(Cl)c2)C(=O)c2c1cccc2[N+](=O)[O-]
7 | 1500 |  |  | COc1ccc2c(c1)C(=O)/C(=C/c1ccc(O)c(O)c1)C2=O
8 | 144 | 10000 | > 50000 | COc1ccc2c(c1)C(=O)/C(=C/c1cc(Br)c(O)c(Br)c1)C2=O
9 | 102 | 5000 | 3500 | Nc1ccc2c(c1)C(=O)/C(=C/c1cc(Cl)c(O)c(Cl)c1)C2=O
10 | 5000 |  |  | O=C1C(=Cc2ccc(O)c(O)c2)C(=O)c2ccccc21
11 | 32 | 8000 | 460 | Nc1ccc2c(c1)C(=O)/C(=C/c1cc(Br)c(O)c(Br)c1)C2=O
12 | 710 |  |  | Nc1ccc2c(c1)C(=O)/C(=C/c1cc(Br)c(O)c(Br)c1)C2
13 | 110 |  |  | COc1cc2c(cc1OC)C(=O)C(=Cc1cc(Br)c(O)c(Br)c1)C2=O
14 | 5000 |  |  | COc1cc(C=C2C(=O)c3cc(Cl)c(Cl)cc3C2=O)ccc1O
15 | 1700 |  |  | COc1cc(/C=C2\C(=O)c3ccc(N)cc3C2=O)cc(OC)c1O
16 | 310 |  |  | COc1cc2c(cc1OC)C(=O)C(=Cc1cc(Cl)c(O)c(Cl)c1)C2=O
17 | 470 |  |  | Nc1cccc2c1C(=O)/C(=C\c1cc(Br)c(O)c(Br)c1)C2=O
18 | 880 |  |  | COc1ccc2c(c1)C(=O)/C(=C/c1cc(Br)c(O)c(OC)c1)C2=O
19 | 740 |  |  | O=C1C(=Cc2cc(Br)c(O)c(Br)c2)C(=O)c2ccccc21
20 | > 5000 |  |  | O=C1/C(=C\c2cc(Br)c(O)c(Br)c2)C(=O)c2cc([N+](=O)[O-])ccc21

Row | SMILES | IC50 [1] [nM] | IC50 [2] [nM] | IC50 [3] [nM]
21 | O=C1/C(=C/c2ccc(O)c(O)c2)C(=O)c2cc([N+](=O)[O-])ccc21 | > 5000 |  | 
